These results are taken from ChEMBL document CHEMBL5465560, “Selectivity Literature for EUbOPEN Chemogenomic Library” (2024).

The target in assay [1] is Serine/threonine-protein kinase N1 (Homo sapiens, UniProt Q16512). In words: Selectivity interaction (ProQinase) EUB0000171b PKN1.
Assay [2] concerns the target 5'-AMP-activated protein kinase catalytic subunit alpha-1 (Homo sapiens, UniProt Q13131). Particulars: at 10 µM.
Assay [3] concerns the target Cyclin-dependent kinase 16 (Homo sapiens) (UniProt Q00536). Particulars: at 10 µM.
In assay [4] the target is Bone morphogenetic protein receptor type-1A (Homo sapiens, UniProt P36894). In words: Selectivity interaction (LanthaScreen Eu Kinase Binding Assay) EUB0001632a BMPR1A. Conditions: at 10 µM. A general note: In TR-FRET formats the signal depends on donor and acceptor labels being close together.
Sequence of Bone morphogenetic protein receptor type-1A (P36894 whole entry): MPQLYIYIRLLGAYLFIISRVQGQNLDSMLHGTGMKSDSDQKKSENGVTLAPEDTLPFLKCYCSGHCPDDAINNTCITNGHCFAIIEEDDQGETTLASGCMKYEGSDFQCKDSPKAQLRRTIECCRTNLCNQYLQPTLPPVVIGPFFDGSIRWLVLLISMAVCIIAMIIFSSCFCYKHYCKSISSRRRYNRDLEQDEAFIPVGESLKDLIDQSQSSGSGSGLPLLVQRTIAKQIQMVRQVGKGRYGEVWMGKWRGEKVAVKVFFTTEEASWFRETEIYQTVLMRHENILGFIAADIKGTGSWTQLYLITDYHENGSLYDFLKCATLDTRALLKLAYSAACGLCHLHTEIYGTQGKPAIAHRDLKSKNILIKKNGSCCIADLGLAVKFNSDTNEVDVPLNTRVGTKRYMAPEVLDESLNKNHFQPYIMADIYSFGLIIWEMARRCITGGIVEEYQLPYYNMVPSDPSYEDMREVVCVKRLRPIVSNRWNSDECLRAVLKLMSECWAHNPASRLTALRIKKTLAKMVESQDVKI
The target in assay [5] is T1, Serine/threonine-protein kinase LATS1 (Homo sapiens) (UniProt O95835).
T1 sequence (whole entry): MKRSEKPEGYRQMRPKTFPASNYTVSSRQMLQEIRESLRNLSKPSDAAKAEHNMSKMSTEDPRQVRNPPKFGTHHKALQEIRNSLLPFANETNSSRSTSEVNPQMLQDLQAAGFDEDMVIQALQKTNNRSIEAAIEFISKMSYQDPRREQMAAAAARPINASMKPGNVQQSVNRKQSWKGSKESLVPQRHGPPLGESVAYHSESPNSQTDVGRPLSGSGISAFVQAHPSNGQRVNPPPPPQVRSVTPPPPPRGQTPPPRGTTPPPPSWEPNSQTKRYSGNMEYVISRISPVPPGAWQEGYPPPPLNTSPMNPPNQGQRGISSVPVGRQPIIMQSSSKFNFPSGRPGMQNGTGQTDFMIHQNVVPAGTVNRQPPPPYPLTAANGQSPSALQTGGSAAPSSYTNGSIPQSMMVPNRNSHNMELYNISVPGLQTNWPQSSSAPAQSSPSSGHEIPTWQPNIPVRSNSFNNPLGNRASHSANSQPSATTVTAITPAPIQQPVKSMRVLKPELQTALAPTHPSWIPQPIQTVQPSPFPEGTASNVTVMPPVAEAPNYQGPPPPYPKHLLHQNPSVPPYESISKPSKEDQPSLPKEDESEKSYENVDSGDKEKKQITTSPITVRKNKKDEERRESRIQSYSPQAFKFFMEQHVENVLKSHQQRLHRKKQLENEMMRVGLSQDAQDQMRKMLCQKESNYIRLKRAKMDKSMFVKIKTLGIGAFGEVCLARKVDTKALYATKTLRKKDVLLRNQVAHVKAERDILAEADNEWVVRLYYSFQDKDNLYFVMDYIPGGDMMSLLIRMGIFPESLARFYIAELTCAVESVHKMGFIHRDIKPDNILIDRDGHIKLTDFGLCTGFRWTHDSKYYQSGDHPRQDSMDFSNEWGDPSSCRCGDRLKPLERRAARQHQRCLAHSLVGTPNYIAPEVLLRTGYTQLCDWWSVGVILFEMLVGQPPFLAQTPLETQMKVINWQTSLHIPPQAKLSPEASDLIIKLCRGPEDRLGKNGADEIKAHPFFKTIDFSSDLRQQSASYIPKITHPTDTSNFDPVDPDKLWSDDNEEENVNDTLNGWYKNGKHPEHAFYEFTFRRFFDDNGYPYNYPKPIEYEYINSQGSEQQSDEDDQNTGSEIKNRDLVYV
In words: Selectivity interaction (ActivX KiNativ screen (kinase selectivity in THP-1 cell lysates)) EUB0000639a LATS1. The class given is subcellular. Conditions: lysate, at 1 µM.

Assay [6] addresses T2, Serine/threonine-protein kinase haspin (Homo sapiens) (UniProt Q8TF76).
T2 sequence (whole entry): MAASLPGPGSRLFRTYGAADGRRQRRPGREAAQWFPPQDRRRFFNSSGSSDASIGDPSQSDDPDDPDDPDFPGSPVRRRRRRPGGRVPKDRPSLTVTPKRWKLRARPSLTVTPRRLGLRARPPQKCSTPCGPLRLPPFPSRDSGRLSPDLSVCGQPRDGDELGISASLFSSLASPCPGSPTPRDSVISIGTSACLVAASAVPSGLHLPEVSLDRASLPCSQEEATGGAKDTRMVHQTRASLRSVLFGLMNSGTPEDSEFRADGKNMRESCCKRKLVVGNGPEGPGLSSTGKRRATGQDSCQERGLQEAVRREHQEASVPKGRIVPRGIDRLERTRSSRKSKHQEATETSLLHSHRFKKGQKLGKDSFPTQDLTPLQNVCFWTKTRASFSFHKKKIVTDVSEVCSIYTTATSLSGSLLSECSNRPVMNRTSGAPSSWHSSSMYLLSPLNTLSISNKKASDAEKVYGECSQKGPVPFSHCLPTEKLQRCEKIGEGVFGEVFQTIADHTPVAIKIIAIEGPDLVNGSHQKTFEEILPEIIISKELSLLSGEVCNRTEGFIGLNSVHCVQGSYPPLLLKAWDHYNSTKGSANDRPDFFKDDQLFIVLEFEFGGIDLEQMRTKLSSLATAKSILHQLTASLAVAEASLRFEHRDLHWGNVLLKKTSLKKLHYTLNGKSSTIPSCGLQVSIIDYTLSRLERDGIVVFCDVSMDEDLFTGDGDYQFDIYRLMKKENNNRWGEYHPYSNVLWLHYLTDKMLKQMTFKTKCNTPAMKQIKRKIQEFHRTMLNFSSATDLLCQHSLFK
As to the kind of experiment: Selectivity interaction (Kinase panel (Invitrogen)) EUB0000639a GSG2. Conditions: at 200 nM.

The target in assay [7] is Serine/threonine-protein kinase SIK3 (Homo sapiens) (UniProt Q9Y2K2). In words: Selectivity interaction (KinomeScan (DiscoverX)) EUB0001619a SIK3. Conditions: at 1 µM.
Sequence of Serine/threonine-protein kinase SIK3 (Homo sapiens) (Q9Y2K2 whole entry, looked up): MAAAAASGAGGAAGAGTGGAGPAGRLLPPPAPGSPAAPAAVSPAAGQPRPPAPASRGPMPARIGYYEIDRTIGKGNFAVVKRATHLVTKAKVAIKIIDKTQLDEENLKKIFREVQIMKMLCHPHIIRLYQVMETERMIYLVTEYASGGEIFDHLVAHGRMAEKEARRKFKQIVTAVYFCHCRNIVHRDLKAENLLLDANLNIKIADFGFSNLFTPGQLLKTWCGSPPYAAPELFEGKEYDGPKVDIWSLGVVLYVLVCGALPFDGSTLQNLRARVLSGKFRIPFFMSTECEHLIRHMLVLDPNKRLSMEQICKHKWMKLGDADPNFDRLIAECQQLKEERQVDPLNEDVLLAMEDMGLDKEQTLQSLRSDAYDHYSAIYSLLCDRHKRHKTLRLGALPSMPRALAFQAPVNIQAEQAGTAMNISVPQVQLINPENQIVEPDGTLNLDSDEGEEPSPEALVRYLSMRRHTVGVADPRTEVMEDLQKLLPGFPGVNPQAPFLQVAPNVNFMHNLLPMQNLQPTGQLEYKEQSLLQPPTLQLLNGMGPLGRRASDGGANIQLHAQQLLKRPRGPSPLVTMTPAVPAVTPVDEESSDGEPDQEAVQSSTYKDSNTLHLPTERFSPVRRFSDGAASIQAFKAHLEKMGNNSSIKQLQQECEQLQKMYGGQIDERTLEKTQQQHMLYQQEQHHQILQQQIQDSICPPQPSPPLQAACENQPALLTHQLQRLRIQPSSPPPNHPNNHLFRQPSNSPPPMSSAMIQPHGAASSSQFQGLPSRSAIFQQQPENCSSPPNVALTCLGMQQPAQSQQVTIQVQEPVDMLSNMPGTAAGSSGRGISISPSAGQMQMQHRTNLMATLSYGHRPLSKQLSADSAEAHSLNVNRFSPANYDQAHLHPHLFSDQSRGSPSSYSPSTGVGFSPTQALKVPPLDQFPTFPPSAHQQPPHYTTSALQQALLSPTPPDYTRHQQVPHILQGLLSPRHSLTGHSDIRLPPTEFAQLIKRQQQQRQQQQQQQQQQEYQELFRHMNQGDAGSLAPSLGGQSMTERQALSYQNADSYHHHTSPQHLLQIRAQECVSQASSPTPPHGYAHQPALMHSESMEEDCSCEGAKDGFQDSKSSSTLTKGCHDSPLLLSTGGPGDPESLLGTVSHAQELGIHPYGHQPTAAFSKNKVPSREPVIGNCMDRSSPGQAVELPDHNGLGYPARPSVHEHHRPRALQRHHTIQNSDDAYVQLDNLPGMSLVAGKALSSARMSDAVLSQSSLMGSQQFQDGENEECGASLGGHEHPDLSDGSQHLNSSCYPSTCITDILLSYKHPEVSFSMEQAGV
Assay [8] has as its target T3, Serine/threonine-protein kinase ULK3 (Homo sapiens) (UniProt Q6PHR2).
T3 sequence (whole entry): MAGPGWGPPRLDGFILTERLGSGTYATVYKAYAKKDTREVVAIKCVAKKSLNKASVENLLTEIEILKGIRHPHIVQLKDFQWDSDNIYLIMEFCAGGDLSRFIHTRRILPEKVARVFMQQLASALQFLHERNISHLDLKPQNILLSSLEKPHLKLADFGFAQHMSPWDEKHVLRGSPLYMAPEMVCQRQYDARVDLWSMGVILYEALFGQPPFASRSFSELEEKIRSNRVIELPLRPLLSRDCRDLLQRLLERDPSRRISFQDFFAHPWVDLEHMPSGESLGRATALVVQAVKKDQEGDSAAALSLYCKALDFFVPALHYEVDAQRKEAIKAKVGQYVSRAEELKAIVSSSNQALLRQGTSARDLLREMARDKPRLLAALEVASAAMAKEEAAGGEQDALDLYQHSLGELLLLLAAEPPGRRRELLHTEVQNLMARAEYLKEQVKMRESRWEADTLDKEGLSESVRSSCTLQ
In words: Selectivity interaction (KinomeScan (DiscoverX)) EUB0000618a ULK3. Conditions: at 10 µM.

Sequence of Serine/threonine-protein kinase N1 (Q16512 2-942 limits assumed): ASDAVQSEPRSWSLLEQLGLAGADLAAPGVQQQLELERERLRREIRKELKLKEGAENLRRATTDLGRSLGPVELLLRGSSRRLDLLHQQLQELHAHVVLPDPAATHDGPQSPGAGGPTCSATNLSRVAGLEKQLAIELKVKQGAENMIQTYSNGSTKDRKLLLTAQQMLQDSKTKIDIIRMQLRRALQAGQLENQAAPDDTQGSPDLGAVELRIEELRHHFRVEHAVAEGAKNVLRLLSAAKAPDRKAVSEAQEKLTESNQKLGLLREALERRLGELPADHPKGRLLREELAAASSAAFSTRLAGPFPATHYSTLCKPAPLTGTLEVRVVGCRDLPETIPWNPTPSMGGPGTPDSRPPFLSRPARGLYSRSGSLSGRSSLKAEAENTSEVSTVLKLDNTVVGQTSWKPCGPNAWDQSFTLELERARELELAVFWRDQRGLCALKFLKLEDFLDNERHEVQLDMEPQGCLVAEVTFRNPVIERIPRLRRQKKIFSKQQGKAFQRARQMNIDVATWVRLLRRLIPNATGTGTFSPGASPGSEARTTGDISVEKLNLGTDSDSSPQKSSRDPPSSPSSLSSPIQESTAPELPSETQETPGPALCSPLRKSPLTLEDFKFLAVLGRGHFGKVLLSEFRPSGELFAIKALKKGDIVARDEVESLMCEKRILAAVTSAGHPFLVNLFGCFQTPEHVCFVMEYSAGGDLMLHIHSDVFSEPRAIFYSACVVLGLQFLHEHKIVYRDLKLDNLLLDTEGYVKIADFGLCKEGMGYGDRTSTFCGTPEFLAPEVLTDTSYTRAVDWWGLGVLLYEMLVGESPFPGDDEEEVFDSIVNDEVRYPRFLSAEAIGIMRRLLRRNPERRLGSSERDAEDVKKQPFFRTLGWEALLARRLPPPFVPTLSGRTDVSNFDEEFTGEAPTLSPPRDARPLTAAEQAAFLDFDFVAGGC
Sequence of Cyclin-dependent kinase 16 (Homo sapiens) (Q00536 whole entry): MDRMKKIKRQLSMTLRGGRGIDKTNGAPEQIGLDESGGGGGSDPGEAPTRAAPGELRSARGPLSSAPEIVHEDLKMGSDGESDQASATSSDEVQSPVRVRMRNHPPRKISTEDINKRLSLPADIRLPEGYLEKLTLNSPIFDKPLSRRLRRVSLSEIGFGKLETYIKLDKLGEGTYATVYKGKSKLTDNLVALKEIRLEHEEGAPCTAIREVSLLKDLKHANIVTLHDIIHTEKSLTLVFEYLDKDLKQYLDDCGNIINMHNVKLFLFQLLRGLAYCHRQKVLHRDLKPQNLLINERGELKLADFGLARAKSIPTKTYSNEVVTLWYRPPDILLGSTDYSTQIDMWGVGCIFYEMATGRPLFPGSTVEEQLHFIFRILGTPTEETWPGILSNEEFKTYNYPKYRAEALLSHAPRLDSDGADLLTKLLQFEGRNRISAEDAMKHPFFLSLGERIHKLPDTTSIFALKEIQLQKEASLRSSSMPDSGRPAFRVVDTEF
Sequence of 5'-AMP-activated protein kinase catalytic subunit alpha-1 (Q13131 whole entry, looked up): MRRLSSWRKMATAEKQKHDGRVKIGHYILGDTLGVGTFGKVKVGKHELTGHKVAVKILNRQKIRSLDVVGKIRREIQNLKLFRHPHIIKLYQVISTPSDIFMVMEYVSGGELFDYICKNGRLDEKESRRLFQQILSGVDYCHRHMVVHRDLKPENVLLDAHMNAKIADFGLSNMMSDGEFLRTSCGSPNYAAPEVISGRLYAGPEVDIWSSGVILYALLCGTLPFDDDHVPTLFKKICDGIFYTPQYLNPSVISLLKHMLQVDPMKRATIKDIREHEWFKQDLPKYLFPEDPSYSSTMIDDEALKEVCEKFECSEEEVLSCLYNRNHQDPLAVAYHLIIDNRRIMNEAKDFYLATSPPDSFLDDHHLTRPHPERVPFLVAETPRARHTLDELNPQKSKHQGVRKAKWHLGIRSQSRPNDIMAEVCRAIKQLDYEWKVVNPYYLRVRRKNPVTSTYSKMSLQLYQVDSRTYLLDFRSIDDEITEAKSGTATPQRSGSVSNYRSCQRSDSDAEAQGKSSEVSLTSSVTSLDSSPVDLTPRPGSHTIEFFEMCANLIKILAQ

`C=CC(=O)Nc1cccc(C(=O)Nc2ccc(Nc3cc(-c4[nH]c(SC)nc4C)ccn3)cc2)c1`: the % of control was 100% in assay [1] (at 1 µM) and 91% in assay [1] (at 5 µM).
As to `CCN(CC)CCCCNc1ncc2cc(-c3cc(OC)cc(OC)c3)c(NC(=O)NC(C)(C)C)nc2n1`, the % of control in assay [2] and in assay [3] was 100% each time.
On to `Cn1cc(-n2cnc3c(NCc4nc5cc(Cl)c(Cl)cc5[nH]4)nc(N4CCOCC4)nc32)cn1`, for which, in assay [4], the % of inhibition was -8.67%.
As to `CC[C@@H]1[C@H](F)C(=O)N[C@@H]1COc1nccc2cc(C(N)=O)c(OC)cc12` [ZIMLOVISERTIB], the % of inhibition in assay [5] was -107%; in assay [6], 41.1%.
Molecule `N#Cc1cccc(-c2c[nH]c3ncnc(N4CCOCC4)c23)c1` yielded a % of control in assay [7] of 100%.
On to `O[C@H]1CC[C@H](Nc2ncc3nc(Nc4c(F)cc(F)cc4F)n([C@H]4CCOC4)c3n2)CC1`, for which the % of control in assay [8] worked out at 94%.
